In brackets after ≈: the same amount, converted by molar mass. Entries after “also recorded” stand apart in the source; their conditions may differ. Where a SMILES comes first, the peptide text is derived from it. [ ]: non-standard residue; d: D form. 2Nal = N[C@@H](Cc1ccc2ccccc2c1)C(=O)O
Assays:
E. coli ATCC 25922 [1] = assay: Antibacterial ability in different MgCl2 concentration; assay type: cell-based
P. arugenosa ATCC 27853 [2] = assay: as above; assay type: cell-based
S. aureus ATCC 19636 [3] = assay: Antibacterial ability in different salt (NaCl) concentration, LYM medium
Procedure: (§4) All bacteria strains of above microbes were cultured in LYM medium. […] The NaCl concentrations in LYM were divided into four groups of 50 mM, 100 mM, 200 mM, 300 mM and the microbes were cultured in the four group of LYM and diluted to a 10^4 CFU/ml bacterial solution. Then added 100 μl of the bacterial solution into 96-well culture dish and added different concentration of antibacterial peptides P113, Phe-P113, Nal-P113 or Bip-P113 to evaluate the antibacterial ability in 50 mM, 100 mM, 200 mM, 300 mM concentration of NaCl. (Note: In addition to NaCl, the LYM medium also contains 5.4 mM KCl, 5.6 mM Na2HPO4, 0.5 mM MgSO4, and 1.0 mM sodium citrate. Besides, 0.4 mg of ZnCl2, 2.0 mg of FeCl3.6H2O, 0.1 mg of CuSO4.5H2O, 0.1 mg of MnSO4.H2O, 0.1 mg of Na2B4O7.10H2O, 700 mg of amino acid mixtures without tryptophan (Clontech), and 20 mg of L-Tryptophan were added per liter of medium. Then added moderate amount of glucose, amino acid, and vitamins mixture from the RPM1-1640 Select-Amine Kit)

P. arugenosa ATCC 27853 [4] = assay: as above
Procedure: as §4

[5] = test system: C. tropicalis ATCC 13803 YLO86
[6] = test system: Eschericha coli strains ATCC 25922; assay: Antibacterial activity assay, NCCLS microdilution MIC in MHB; assay type: cell-based
Excerpt: (§1) For testing the antibacterial ability of Phe-P113, Nal-P113 and Bip-P113 in different salt concentration, we use Antibacterial activity assay to perform the test. Three bacteria strains are used: Eschericha coli strains (ATCC 25922), Staphylococcus aureus strains (ATCC 25923, 29213 and 19636, methicillin-resistant) and Pseudomonas aeruginosa strains (ATCC 27853 and 9027, ampicillin-resistant).
(§2) The microdilution method of National Committee for Clinical Laboratory Standards (NCCLS) is used to evaluate ‘The minimal inhibition concentration (MIC)’. The minimum concentration that can inhibit 90% or more microbes is the ‘minimal inhibition concentration’.
(§3) In the microdilution method, the 1 μl peptide solution (The concentration is between the range of 5000 μg/ml to 78.1 μg/ml) and the 99 μl inoculums (5×10^5 CFU/ml) is mixed incubated in 96-well culture dish coated with polyethylene under 37° C. for 16 hr. Then evaluated the turbidity in O.D.600 by ELISA plate reader (Thermo Max, Molecular Devices, Sunnyvale, Calif.). Take the Muller-Hinton Broth (MHB) and inoculums suspension with adding peptides as negative and positive control group relatively. The result of MIC is the minimum concentration of peptides that can inhibit the bacteria growth (equal to or more than 90%).

[7] = test system: Staphylococcus aureus strains ATCC 29213; assay: as above; assay type: cell-based
Excerpt: as §1, §2, §3

[8] = test system: Staphylococcus aureus strains ATCC 19636; assay: as above; assay type: cell-based
Excerpt: as §1, §2, §3

[9] = test system: Staphylococcus aureus strains ATCC 25923; assay: as above; assay type: cell-based
Excerpt: as §1, §2, §3

[10] = test system: Pseudomonas aeruginosa strains ATTC 9027; assay: as above; assay type: cell-based
Excerpt: as §1, §2, §3

[11] = test system: Pseudomonas aeruginosa strains ATCC 27853; assay: as above; assay type: cell-based
Excerpt: as §1, §2, §3

S. aureus ATCC 19636 [12] = assay: Antibacterial ability in different MgCl2 concentration; assay type: cell-based
P. arugenosa ATCC 9027 [13] = assay: Antibacterial ability in different salt (NaCl) concentration, LYM medium
Procedure: as §4

S. aureus ATCC 25923 [14] = assay: Antibacterial ability in different MgCl2 concentration; assay type: cell-based
E. coli ATCC 25922 [15] = assay: Antibacterial ability in different salt (NaCl) concentration, LYM medium
Procedure: as §4

S. aureus ATCC 29213 [16] = assay: as above
Procedure: as §4

Bacteria strains = assay: Antibacterial ability in different salt concentration, overall statement; conditions: different concentration of NaCl / salt
Procedure: as §4

P. arugenosa ATCC 9027 [17] = assay: Antibacterial ability in different MgCl2 concentration; assay type: cell-based
S. aureus ATCC 25923 [18] = assay: Antibacterial ability in different salt (NaCl) concentration, LYM medium
Procedure: as §4

S. aureus ATCC 29213 [19] = assay: Antibacterial ability in different MgCl2 concentration; assay type: cell-based

C[C@H](N)C(=O)N[C@@H](CCCCN)C(=O)N[C@@H](CCCNC(=N)N)C(=O)N[C@@H](Cc1ccc2ccccc2c1)C(=O)N[C@@H](Cc1ccc2ccccc2c1)C(=O)NCC(=O)N[C@@H](Cc1ccc(O)cc1)C(=O)N[C@@H](CCCCN)C(=O)N[C@@H](CCCNC(=N)N)C(=O)N[C@@H](CCCCN)C(=O)N[C@@H](Cc1ccccc1)C(=O)N[C@@H](Cc1ccc2ccccc2c1)C(N)=O [Nal-P113] (H-AKR[2Nal][2Nal]GYKRKF[2Nal]-NH2; N-terminus and C-terminus assumed)
antibacterial ability (MIC) (E. coli ATCC 25922 [1]; Control group): 3.12 µg/mL
antibacterial ability (MIC) (E. coli ATCC 25922 [1]; MgCl2 0.5 mM): 3.12 µg/mL
antibacterial ability (MIC) (E. coli ATCC 25922 [1]; MgCl2 1.5 mM): 6.25 µg/mL
antibacterial ability (MIC) (E. coli ATCC 25922 [1]; MgCl2 2.5 mM): 12.5 µg/mL
antibacterial ability (MIC) (P. arugenosa ATCC 27853 [2]; Control group): 1.56 µg/mL
antibacterial ability (MIC) (P. arugenosa ATCC 27853 [2]; MgCl2 0.5 mM): 3.12 µg/mL
antibacterial ability (MIC) (P. arugenosa ATCC 27853 [2]; MgCl2 1.5 mM): 3.21 µg/mL
antibacterial ability (MIC) (P. arugenosa ATCC 27853 [2]; MgCl2 2.5 mM): 6.25 µg/mL
antibacterial ability (MIC) (S. aureus ATCC 19636 [3]; NaCl 50 mM): 12.5
antibacterial ability (MIC) (S. aureus ATCC 19636 [3]; NaCl 100 mM): 25
antibacterial ability (MIC) (S. aureus ATCC 19636 [3]; NaCl 200 mM): 50
antibacterial ability (MIC) (S. aureus ATCC 19636 [3]; NaCl 300 mM): 50
antibacterial ability (MIC) (P. arugenosa ATCC 27853 [4]; NaCl 50 mM): 1.56
antibacterial ability (MIC) (P. arugenosa ATCC 27853 [4]; NaCl 100 mM): 12.5
antibacterial ability (MIC) (P. arugenosa ATCC 27853 [4]; NaCl 200 mM): 50
antibacterial ability (MIC) (P. arugenosa ATCC 27853 [4]; NaCl 300 mM): >50
MIC [5]: 6.25 µg/mL (≈ 3.58 µM)
minimal inhibition concentration (MIC) [6]: 12.5
minimal inhibition concentration (MIC) [7]: 6.25
minimal inhibition concentration (MIC) [8]: 6.25
minimal inhibition concentration (MIC) [9]: 6.25
minimal inhibition concentration (MIC) [10]: 50
minimal inhibition concentration (MIC) [11]: 50
antibacterial ability (MIC) (S. aureus ATCC 19636 [12]; Control group): 6.25 µg/mL
antibacterial ability (MIC) (S. aureus ATCC 19636 [12]; MgCl2 0.5 mM): 12.5 µg/mL
antibacterial ability (MIC) (S. aureus ATCC 19636 [12]; MgCl2 1.5 mM): 12.5 µg/mL
antibacterial ability (MIC) (S. aureus ATCC 19636 [12]; MgCl2 2.5 mM): 25 µg/mL
antibacterial ability (MIC) (P. arugenosa ATCC 9027 [13]; NaCl 50 mM): 6.25
antibacterial ability (MIC) (P. arugenosa ATCC 9027 [13]; NaCl 100 mM): 50
antibacterial ability (MIC) (P. arugenosa ATCC 9027 [13]; NaCl 200 mM): 50
antibacterial ability (MIC) (P. arugenosa ATCC 9027 [13]; NaCl 300 mM): >50
antibacterial ability (MIC) (S. aureus ATCC 25923 [14]; Control group): 1.56 µg/mL
antibacterial ability (MIC) (S. aureus ATCC 25923 [14]; MgCl2 0.5 mM): 3.12 µg/mL
antibacterial ability (MIC) (S. aureus ATCC 25923 [14]; MgCl2 1.5 mM): 3.12 µg/mL
antibacterial ability (MIC) (S. aureus ATCC 25923 [14]; MgCl2 2.5 mM): 3.12 µg/mL
antibacterial ability (MIC) (E. coli ATCC 25922 [15]; NaCl 50 mM): 3.125
antibacterial ability (MIC) (E. coli ATCC 25922 [15]; NaCl 100 mM): 12.5
antibacterial ability (MIC) (E. coli ATCC 25922 [15]; NaCl 200 mM): 25
antibacterial ability (MIC) (E. coli ATCC 25922 [15]; NaCl 300 mM): 50
antibacterial ability (MIC) (S. aureus ATCC 29213 [16]; NaCl 50 mM): 1.56
antibacterial ability (MIC) (S. aureus ATCC 29213 [16]; NaCl 100 mM): 3.125
antibacterial ability (MIC) (S. aureus ATCC 29213 [16]; NaCl 200 mM): 6.25
antibacterial ability (MIC) (S. aureus ATCC 29213 [16]; NaCl 300 mM): 25
antibacterial ability in different concentration of salt (in words) (Bacteria strains): better than P-113; also recorded: remains their activity of antibacterial
antibacterial ability (MIC) (P. arugenosa ATCC 9027 [17]; Control group): 3.12 µg/mL
antibacterial ability (MIC) (P. arugenosa ATCC 9027 [17]; MgCl2 0.5 mM): 6.25 µg/mL
antibacterial ability (MIC) (P. arugenosa ATCC 9027 [17]; MgCl2 1.5 mM): 6.25 µg/mL
antibacterial ability (MIC) (P. arugenosa ATCC 9027 [17]; MgCl2 2.5 mM): 12.5 µg/mL
antibacterial ability (MIC) (S. aureus ATCC 25923 [18]; NaCl 50 mM): 1.56
antibacterial ability (MIC) (S. aureus ATCC 25923 [18]; NaCl 100 mM): 3.125
antibacterial ability (MIC) (S. aureus ATCC 25923 [18]; NaCl 200 mM): 12.5
antibacterial ability (MIC) (S. aureus ATCC 25923 [18]; NaCl 300 mM): 50
antibacterial ability (MIC) (S. aureus ATCC 29213 [19]; Control group): 1.56 µg/mL
antibacterial ability (MIC) (S. aureus ATCC 29213 [19]; MgCl2 0.5 mM): 1.56 µg/mL
antibacterial ability (MIC) (S. aureus ATCC 29213 [19]; MgCl2 1.5 mM): 1.56 µg/mL
antibacterial ability (MIC) (S. aureus ATCC 29213 [19]; MgCl2 2.5 mM): 1.56 µg/mL

— US9073967B2, “High salt-resistance antibacterial peptide and method for producing the same” (NATIONAL TSING HUA UNIVERSITY, priority 2011, dated 2015)
